Data published in patent US12501864B2 (priority 2020, dated 2025).
Structures can show the parent of a compound that is named as a salt.

Details: in vivo

In the case of `O=C1OC2(c3ccc(O)cc3Oc3cc(O)ccc32)c2ccccc21` [Fluorescein, fluorescein disodium salt], the “distribution by infection level” value is reported as “greater in trees with lower infection levels compared to trees with high infection levels”, the “distribution in fruits vs leaves” value is reported as “higher in olive fruits than leaves” and the “distribution throughout the tree” value is reported as “distributed evenly throughout the tree horizontally and vertically to all the sectors measured”.
